The source of these data is patent US9580390B2, “Indazole compounds as kinase inhibitors and method of treating cancer with same” (University Health Network, priority 2011, dated 2017).

Like-named read-outs stand apart in the source and are kept apart here.

Test [1] concerns ovarian cancer cells (PA-1). The test is described as follows: Cancer cell line growth inhibition (SRB assay). The class given is cell-based. The conditions noted are these: read-out: Cancer Cell Line GI50 Range PA-1.
Another test concerns the target T1, human TTK (Homo sapiens, UniProt P33981).
T1 construct: amino terminal GST fusion of full length human TTK; purchased Invitrogen
T1 sequence (P33981 1-857): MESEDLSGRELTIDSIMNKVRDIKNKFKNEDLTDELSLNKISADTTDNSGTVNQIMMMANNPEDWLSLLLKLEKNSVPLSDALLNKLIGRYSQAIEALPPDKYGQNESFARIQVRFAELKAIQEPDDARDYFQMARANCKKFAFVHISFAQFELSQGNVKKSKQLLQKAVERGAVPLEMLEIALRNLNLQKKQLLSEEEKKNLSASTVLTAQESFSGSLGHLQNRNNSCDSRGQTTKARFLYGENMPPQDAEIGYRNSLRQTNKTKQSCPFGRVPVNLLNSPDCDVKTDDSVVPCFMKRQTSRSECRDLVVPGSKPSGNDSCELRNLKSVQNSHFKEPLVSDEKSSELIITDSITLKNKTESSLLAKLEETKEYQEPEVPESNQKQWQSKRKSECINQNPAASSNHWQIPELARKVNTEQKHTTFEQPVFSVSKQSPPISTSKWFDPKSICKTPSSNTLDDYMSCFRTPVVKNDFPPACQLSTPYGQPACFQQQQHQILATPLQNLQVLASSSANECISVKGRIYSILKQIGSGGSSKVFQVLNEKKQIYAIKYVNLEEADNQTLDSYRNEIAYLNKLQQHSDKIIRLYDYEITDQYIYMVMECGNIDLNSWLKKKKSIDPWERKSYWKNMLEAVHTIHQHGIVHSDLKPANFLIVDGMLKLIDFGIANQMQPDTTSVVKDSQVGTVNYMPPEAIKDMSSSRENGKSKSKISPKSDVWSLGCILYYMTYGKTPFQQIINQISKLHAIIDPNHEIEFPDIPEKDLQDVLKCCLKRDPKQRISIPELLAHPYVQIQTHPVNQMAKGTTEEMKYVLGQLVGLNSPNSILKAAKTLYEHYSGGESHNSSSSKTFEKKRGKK
Kind of test: TTK inhibition assay (indirect ELISA). The conditions noted are these: read-out: TTK IC50 Range. It counts as biochemical.

In the next test the test system is Breast cancer cells. The test is described as follows: Cancer cell line growth inhibition (SRB assay). The settings on record: Homo sapiens; MDA-MB-468; read-out: Cancer Cell Line GI50 Range MDA-MB-468. The class given is cell-based.
Test [2] deals with colon cancer cells (HCT116). Kind of test: Cancer cell line growth inhibition (SRB assay). It counts as cell-based. The conditions noted are these: Homo sapiens, HCT-116, read-out: Cancer Cell Line GI50 Range HCT116.
Another test deals with T2, human PLK4 (Homo sapiens, UniProt O00444).
T2 construct: amino terminal GST fusion of residues 1-391 of human PLK4; made in house; host or cells: E. coli
T2 sequence (O00444 1-391): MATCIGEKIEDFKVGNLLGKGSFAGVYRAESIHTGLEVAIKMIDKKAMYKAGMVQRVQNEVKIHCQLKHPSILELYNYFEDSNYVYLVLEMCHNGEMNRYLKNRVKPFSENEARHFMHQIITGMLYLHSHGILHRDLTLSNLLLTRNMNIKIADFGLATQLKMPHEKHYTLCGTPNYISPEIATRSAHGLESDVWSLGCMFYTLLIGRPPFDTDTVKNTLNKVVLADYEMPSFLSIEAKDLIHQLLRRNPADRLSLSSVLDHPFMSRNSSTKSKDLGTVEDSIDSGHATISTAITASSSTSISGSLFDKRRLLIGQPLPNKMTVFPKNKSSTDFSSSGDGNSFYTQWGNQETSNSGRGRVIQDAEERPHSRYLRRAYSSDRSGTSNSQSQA
Kind of test: PLK4 inhibition assay (indirect ELISA). It counts as biochemical. The settings on record: 15 μM ATP. On the procedure:
Active PLK4 was purified from an E. coli expression system as an amino terminal GST fusion of residues 1-391 of human PLK4. The protein was purified from clarified cell extracts after induction at 15° C. overnight using glutathione sepharose, gel permeation chromatography, and ion exchange (Resource Q). The resulting protein was dephosphorylated with lambda phosphatase (NEB cat# P0753), and resolved from the phosphatase using gluthione sepharose. The dephosphorylated GST-PLK4 was stored in aliquots at −80° C. until use.
PLK4 activity was measured using an indirect ELISA detection system. Dephosphorylated GST-PLK4 (4 nM) was incubated in the presence of 15 μM ATP (Sigma cat# A7699), 50 mM HEPES-[…] pH 7.4, 10 mM MgCl2, 0.01% Brij 35 (Sigma cat# 03-3170), in a 96 well microtitre plate pre-coated with MBP (Millipore cat#30-011). The reaction was allowed to proceed for 30 minutes, followed by 5 washes of the plate with Wash Buffer (50 mM TRIS-Cl pH 7.4 and 0.2% Tween 20), and incubation for 30 minutes with a 1:3000 dilution of primary antibody (Cell Signaling cat# 9381). The plate was washed 5 times with Wash Buffer, incubated for 30 minutes in the presence of secondary antibody coupled to horse radish peroxidase (BioRad cat# 1721019, 1:3000 concentration), washed an additional 5 times with Wash Buffer, and incubated in the presence of TMB substrate (Sigma cat# T0440). The colourimetric reaction was allowed to continue for 5 minutes, followed by addition of stop solution (0.5 N sulphuric acid), and quantified by detection at 450 nm with either a monochromatic or filter based plate reader (Molecular Devices M5 or Beckman DTX880, respectively).
Compound inhibition was determined at either a fixed concentration (10 μM) or at a variable inhibitor concentration (typically 50 μM to 0.1 μM in a 10 point dose response titration). Compounds were pre-incubated in the presence of enzyme for 15 minutes prior to addition of ATP and the activity remaining quantified using the above described activity assay. The % Inhibition of a compound was determined using the following formula: % Inhibition=100×(1−(experimental value−background value)/(high activity control−background value)). The IC50 value was determined using a non-linear 4 point logistic curve fit (XLfit4, IDBS) with the formula: (A+(B/(1+((x/C)^D)))), where A=background value, B=range, C=inflection point, D=curve fit parameter.

The mark [3] stands for this setting: PA-1 ovarian cancer cells, SRB assay.
Setting [4] is: HCT116 colon cancer cells, SRB assay.

In the case of `CN1[C@@H]2CCC[C@H]1C[C@@H](Oc1ccc(-c3n[nH]c4ccc(C(=O)NC(c5ccccc5)C5CC5)cc34)cc1)C2` (stereo partly drawn) [Example A390, N-(cyclopropyl (phenyl)methyl)-3-(4-(((1R,3R,5S)-9-methyl-9-azabicyclo[3.3.1]nonan-3-yl)oxy)phenyl)-1 H-indazole-5-carboxamide], the GI50 was less than 100 nM in test [1] (Homo sapiens, PA-1); 100 to 500 nM in the test with Breast cancer cells; less than 100 nM in test [2]. Also, the IC50 at human TTK was less than 100 nM; on human PLK4, less than 50 nM.
For `O=C(NC(c1ccccc1Cl)C1CCC1)c1ccc2[nH]nc(-c3ccc(N4CCN(C5COC5)CC4)cc3)c2c1` (centres unmarked) [Example A297, N-((2-chlorophenyl)(cyclobutyl)methyl)-3-(4-(4-(oxetan-3-yl)piperazin-1-yl)phenyl)-1H-indazole-5-carboxamide], the GI50 in test [1] (Homo sapiens, PA-1) was less than 100 nM; in the test with Breast cancer cells, less than 100 nM; in test [2], less than 100 nM. For the same compound, the figures for the IC50 at human TTK and at human PLK4 were less than 100 nM and less than 50 nM, respectively.
As to `CC(C)C[C@H](NC(=O)c1ccc2[nH]nc(-c3ccc(N4CCN(C5COC5)CC4)cc3)c2c1)c1ccccc1F` [Example A275, (S)-N-(1-(2-fluorophenyl)-3-methylbutyl)-3-(4-(4-(oxetan-3-yl)piperazin-1-yl)phenyl)-1H-indazole-5-carboxamide], the GI50 in test [1] (Homo sapiens, PA-1) was less than 100 nM; in the test with Breast cancer cells, less than 100 nM; in test [2] it was less than 100 nM. The figures for the half-maximal inhibitory concentration (IC50) on human TTK and at human PLK4 were less than 100 nM and less than 50 nM, respectively.
As to `CN1C2COCC1CC(Oc1ccc(-c3n[nH]c4ccc(C(=O)NC(c5ccccc5)C5CC5)cc34)cc1)C2` [Example A387, N-(cyclopropyl(phenyl)methyl)-3-(4-(((1R,5S,7s)-9-methyl-3-oxa-9-azabicyclo[3.3.1]nonan-7-yl)oxy)phenyl)-1H-indazole-5-carboxamide], the GI50 is less than 100 nM in test [1] (Homo sapiens, PA-1); more than 500 nM in the test with Breast cancer cells; less than 100 nM in test [2]. Besides, the values for the IC50 at human TTK and on human PLK4 were less than 100 nM and less than 50 nM, respectively.
`O=C(N[C@H](c1ccccc1)C1CC1)c1ccc2[nH]nc(-c3ccc(OC4CC5CCC(C4)N5C4COC4)cc3)c2c1` (stereo partly drawn) [Example A336, N-((S)-cyclopropyl(phenyl)methyl)-3-(4-(((1R,3R,5S)-8-(oxetan-3-yl)-8-azabicyclo[3.2.1]octan-3-yl)oxy)phenyl)-1H-indazole-5-carboxamide]: the GI50 in test [1] (Homo sapiens, PA-1) lay within 100 to 500 nM; in test [2], 100 to 500 nM. Further, the IC50 was less than 100 nM at human TTK and less than 50 nM on human PLK4.
As to `CC(C)(C)CC(NC(=O)c1ccc2[nH]nc(-c3ccc(N4CCN(C5COC5)CC4)cc3)c2c1)c1ccccc1F` (centres unmarked) [Example A308, N-(1-(2-fluorophenyl)-3,3-dimethylbutyl)-3-(4-(4-(oxetan-3-yl)piperazin-1-yl)phenyl)-1H-indazole-5-carboxamide], the half-maximal inhibitory concentration (IC50) was less than 100 nM at human TTK and less than 50 nM at human PLK4.
On to `CN1CCC(Oc2ccc(-c3n[nH]c4ccc(NC(=O)C(c5ccccc5F)C5CCCC5)cc34)cc2)CC1` (centres unmarked) [Example A162, 2-cyclopentyl-2-(2-fluorophenyl)-N-(3-(4-((1-methylpiperidin-4-yl)oxy)phenyl)-1H-indazol-5-yl)acetamide], for which the GI50 in test [1] (setting [3]) and in test [2] (setting [4]) was 100 to 500 nM throughout. Besides, at human PLK4, the IC50 was less than 50 nM.
Turning to `Cc1ccccc1CC(=O)Nc1ccc2[nH]nc(-c3ccc(OC4CCN(C)CC4)cc3)c2c1` [Example A92, N-(3-(4-(1-Methylpiperidin-4-yloxy)phenyl)-1H-indazol-5-yl)-2-o-tolylacetamide], the GI50 is 100 to 500 nM in test [1] (setting [3]) and less than 100 nM in test [2] (setting [4]). For the same compound, the IC50 at human PLK4 is less than 50 nM.
For `CC(C)[C@H](NC(=O)c1ccc2[nH]nc(-c3ccc(OC4CN(C5COC5)C4)cc3)c2c1)c1ccccc1Cl` [Example A296, (S)-N-(1-(2-chlorophenyl)-2-methylpropyl)-3-(4-((1-(oxetan-3-yl)azetidin-3-yl)oxy)phenyl)-1H-indazole-5-carboxamide], the GI50 in test [1] (Homo sapiens, PA-1) is less than 100 nM; in test [2] it was less than 100 nM. Besides, the values for the IC50 at human TTK and at human PLK4 were less than 100 nM and less than 50 nM, respectively.
For `CC(C)(C)C[C@H](NC(=O)c1ccc2[nH]nc(-c3ccc(N4C5COCC4CC(O)C5)cc3)c2c1)c1ccccc1` (stereo partly drawn) [Example A426, N-((S)-3,3-dimethyl-1-phenylbutyl)-3-(4-((1R,5S,7R)-7-hydroxy-3-oxa-9-azabicyclo[3.3.1]nonan-9-yl)phenyl)-1H-indazole-5-carboxamide], the values for the IC50 on human TTK and at human PLK4 were less than 100 nM and less than 50 nM, respectively.
For `CCC(CNC(=O)c1ccc2[nH]nc(-c3ccc(OC4CCN(C)CC4)cc3)c2c1)c1ccccc1` (centres unmarked) [Example A408, 3-(4-((1-methylpiperidin-4-yl)oxy)phenyl)-N-(2-phenylbutyl)-1H-indazole-5-carboxamide], in that order: less than 100 nM and less than 50 nM.
As to `O=C(NC(c1ccsc1)C1CCC1)c1ccc2[nH]nc(-c3ccc(OC4CCN(C5COC5)CC4)cc3)c2c1` (centres unmarked) [Example A331, N-(cyclobutyl(thiophen-3-yl)methyl)-3-(4-((1-(oxetan-3-yl)piperidin-4-yl)oxy)phenyl)-1H-indazole-5-carboxamide], the GI50 is less than 100 nM in test [1] (Homo sapiens, PA-1) and less than 100 nM in test [2]. Also, the IC50 at human TTK is less than 100 nM; on human PLK4, less than 50 nM.
Regarding `CN1CCC(Oc2ccc(-c3n[nH]c4ccc(NC(=O)C(c5ccccc5)C5CCCC5)cc34)cc2)CC1` (centres unmarked) [Example A148, 2-cyclopentyl-N-(3-(4-((1-methylpiperidin-4-yl)oxy)phenyl)-1H-indazol-5-yl)-2-phenylacetamide], the GI50 in test [1] (setting [3]) and in test [2] (setting [4]) was 100 to 500 nM in each case. Moreover, on human PLK4, the IC50 was less than 50 nM.
With `C[C@@H]1CCCN1[C@@H](C(=O)Nc1ccc2[nH]nc(-c3ccc(N4CCOCC4)cc3)c2c1)c1ccsc1` [Example A97, (R)-2-((R)-2-methylpyrrolidin-1-yl)-N-(3-(4-morpholinophenyl)-1H-indazol-5-yl)-2-(thiophen-3-yl)acetamide], the GI50 in test [1] (setting [3]) and in test [2] (setting [4]) was 100 to 500 nM throughout. On human PLK4, the IC50 was less than 50 nM.
